A short description of series [1]: LogP by HPLC on reversed phase columns (EEC directive 79/831 Annex V.A8). The following applies: pH 2.7, 0.1% formic acid in water / acetonitrile gradient. Format: physicochemical. The protocol: Measurement of Iog P values was performed according EEC directive 79/831 Annex V.A8 by HPLC (High Performance Liquid Chromatography) on reversed phase columns with the following method:
Measurement of LC-MS was done at pH 2.7 with 0.1% formic acid in water and with acetonitrile (contains 0.1% formic acid) as eluent with a linear gradient from 10% acetonitrle to 95% acetonitrile.
Calibration was done with not branched alkan2-ones (with 3 to 16 carbon atoms) with known log P-values (measurement of log P values using retention times with linear interpolation between successive alkanones). lambda-maX-values were determined using UV-spectra from 200 nm to 400 nm and the peak values of the chromatographic signals.

The next series relates to Plasmopara viticola. Briefly: Plasmopara test (grapevines) / preventive. It is filed as in vivo. Conditions: preventive spray, 100 ppm of active ingredient, evaluated 6 days after inoculation. The procedure: Plasmopara Test (Grapevines)/Preventive
To produce a suitable preparation of active compound, 1 part by weight of active compound is mixed with the stated amounts of solvent and emulsifier, and the concentrate is diluted with water to the desired concentration.
To test for preventive activity, young plants are sprayed with the preparation of active compound at the stated rate of application. After the spray coating has dried on, the plants are inoculated with an aqueous spore suspension of Plasmopara viticola and then remain for 1 day in an incubation cabinet at approximately 20° C. and a relative atmospheric humidity of 100%. The plant is subsequently placed for 4 days in a greenhouse at approximately 21° C. and a relative atmospheric humidity of approximately 90%. The plants are then misted and placed for 1 day in an incubation cabinet.
The test is evaluated 6 days after the inoculation. 0% means an efficacy which corresponds to that of the untreated control, while an efficacy of 100% means that no disease is observed.

For a further series, the system named is Phytophthora infestans. It is filed as in vivo. Conditions: tomatoes, preventive spray, 10 ppm of active ingredient, evaluated 3 days after inoculation.
The next series has as its system Pythium ultimum. In words: Pythium test (cotton) / seed treatment. Format: in vivo. The following applies: 50 g/dt seed of active ingredient, greenhouse 7 days, emerged seedlings. The protocol: Pythium Test (cotton)/Seed Treatment
The test is performed under greenhouse conditions.
Cotton seeds, treated with the active compound or compound combinations, solved in N-methyl-2-pyrrolidon and diluted with water to the desired dosages, were sown in 6*6 cm pots containing 4 cm of a 1:1 mix of steamed field soil and sand.
Perlite was incubated with mycelium fragments of Pythium ultimum. 1 ml of infected perlite was scattered between the treated cotton seeds. Seeds were then covered by light expanded clay aggregate. Pots were incubated in the greenhouse 7 days at 20° C. and 80% relative humidity.
Assessment consisted of counting of emerged seedlings. 0% means an efficacy which corresponds to that of the control, while an efficacy of 100% means that all seedlings have emerged.

`Cc1nnnn1C(=NOCc1csc(NC(=O)C=CC2CC2)n1)c1ccccc1` [Example 13] registered a LogP in series [1] of 3.09.

Take `CC(=CC(=O)Nc1cccc(CON=C(c2ccccc2)c2nnnn2C)n1)C1CC1` [Example 2]: the Eff. % in the series on Plasmopara viticola is given as 84%; with Phytophthora infestans, 100%. The compound further had a LogP in series [1] of 3.29.

With `Cc1nnnn1C(=NOCc1csc(NC(=O)C=C(C2CC2)C2CC2)n1)c1ccccc1` [Example 15], the LogP in series [1] is recorded as 3.83.

In the case of `CC(C)=CC(=O)Nc1nc(CON=C(c2ccccc2)c2nnnn2C)cs1` [Example 28], the LogP in series [1] is given as 3.08. This compound showed an Eff. % in the series with Phytophthora infestans of 90%.

As to `Cn1nnnc1C(=NOCc1csc(NC(=O)C=CC2CCCCC2)n1)c1ccccc1` [Example 29], in series [1], the LogP came out at 2.5. Moreover, in the series with Phytophthora infestans, the Eff. % came to 95%.

Take `Cc1nnnn1C(=NOCc1csc(NC(=O)C=C(c2ccccc2)C2CC2)n1)c1ccccc1` [Example 9]: the LogP in series [1] is 4.26. The compound further returned an Eff. % in the series on Phytophthora infestans of 85%.

`CC(=CC1CC1)C(=O)Nc1nc(CON=C(c2ccccc2)c2nnnn2C)cs1` [Example 27] yielded a LogP in series [1] of 3.44. Further, the Eff. % in the series on Phytophthora infestans stood at 95%.

As for `CC(=CC(=O)Nc1nc(CON=C(c2ccccc2)c2nnnn2C)cs1)C1CCCCC1` [Example 21], the LogP in series [1] is listed as 4.44.

On to `CC(=CC(=O)Nc1nc(CON=C(c2ccccc2)n2nnnc2C)cs1)C1CC1` [Example 7], for which the lipophilicity (LogP) in series [1] was found to be 3.46.

For the compound `CC(=CC1CCCC1)C(=O)Nc1nc(CON=C(c2ccccc2)c2nnnn2C)cs1` [Example 26], the Eff. % is given as 90% with Plasmopara viticola and 95% with Phytophthora infestans. In series [1], this compound showed a LogP of 4.09.

Take `Cn1nnnc1C(=NOCc1csc(NC(=O)C=CC2CC2)n1)c1ccccc1` [Example 24]: the Eff. % with Plasmopara viticola came out at 90%; in the series on Phytophthora infestans it was 95%. In addition, the LogP in series [1] is 3.04.

As for `CC(=CC1CC1)C(=O)Nc1nc(CON=C(c2ccccc2)n2nnnc2C)cs1` [Example 11], the LogP in series [1] is recorded as 3.52. Further, the Eff. % with Phytophthora infestans is given as 95%.

`Cc1nnnn1C(=NOCc1cccc(NC(=O)C=C(c2ccccc2)C2CC2)n1)c1ccccc1` [Example 33] showed a LogP in series [1] of 4.41. For the same compound, the Eff. % in the series on Phytophthora infestans came out at 95%.

`CC(C)=CC(=O)Nc1nc(CON=C(c2ccccc2)n2nnnc2C)cs1` [Example 12] returned a LogP in series [1] of 3.15. In the series with Phytophthora infestans, this compound yielded an Eff. % of 80%.

Take `CC(=CC1CCCC1)C(=O)Nc1nc(CON=C(c2ccccc2)n2nnnc2C)cs1` [Example 10]: the LogP in series [1] is 4.16. Further, the Eff. % in the series with Phytophthora infestans is reported as 80%.

For `CC(=CC(=O)Nc1cccc(CON=C(c2ccccc2)n2nnnc2C)n1)C1CC1` (mixture of isomers) [Example 31], the LogP in series [1] is listed as 3.59. This compound also returned an Eff. % in the series with Phytophthora infestans of 93%.

For `CC(=CC(=O)Nc1cccc(CON=C(c2ccccc2)c2nnnn2C)n1)C1CC1` [Example 3], in series [1], the LogP was 3.46. The Eff. % in the series with Phytophthora infestans is recorded as 95%.

Consider `Cc1nnnn1C(=NOCc1cccc(NC(=O)C=CC2CCCCC2)n1)c1ccccc1` (mixture of isomers) [Example 32], for which the LogP in series [1] was found to be 4.46. For the same compound, the Eff. % in the series with Phytophthora infestans is recorded as 95%.

For `Cn1nnnc1C(=NOCc1csc(NC(=O)C=C(C2CC2)C2CC2)n1)c1ccccc1` [Example 23], the LogP in series [1] stood at 3.76. For the same compound, the Eff. % with Phytophthora infestans is reported as 85%.

With `Cn1nnnc1C(=NOCc1cccc(NC(=O)C=CC2CCCCC2)n1)c1ccccc1` [Example 6], the Eff. % in the series on Plasmopara viticola is on record as 93%; with Phytophthora infestans it was 95%. The same compound registered a LogP in series [1] of 4.36.

In turn, `Cc1nnnn1C(=NOCc1csc(NC(=O)C=CC2CCCCC2)n1)c1ccccc1` [Example 16] registered a LogP in series [1] of 2.53. This compound had an Eff. % with Phytophthora infestans of 90%.

In turn, `Cc1nnnn1C(=NOCc1csc(NC(=O)C=C(c2ccccc2)C2CC2)n1)c1ccccc1` [Example 17] registered a LogP in series [1] of 2.38.

For the compound `CC(=CC(=O)Nc1cccc(CON=C(c2ccccc2)c2nnnn2C)n1)C1CCCCC1` [Example 5], the Eff. % in the series on Plasmopara viticola was 91%; in the series with Phytophthora infestans it was 90%. The compound further showed a LogP in series [1] of 4.82.

Consider `CC(=CC(=O)Nc1cccc(CON=C(c2ccccc2)c2nnnn2C)n1)C1CC1` [Example 1, 3-cyclopropyl-N-{6-[({[(1-methyl-1H-tetrazol-5-yl)(phenyl)methylene]amino}oxy)methyl]pyridin-2-yl}but-2-enamide], for which the Eff. % in the series with Plasmopara viticola was determined as 97%; with Pythium ultimum, 100%; in the series with Phytophthora infestans, 95%. For the same compound, the chromatographic logP in series [1] (reversed phase HPLC column) is 3.48.

The compound `CC(=CC(=O)Nc1nc(CON=C(c2ccccc2)c2nnnn2C)cs1)C1CC1` [Example 18] came in with a LogP in series [1] of 3.41.

Consider `Cn1nnnc1C(=NOCc1csc(NC(=O)C=C(c2ccccc2)C2CC2)n1)c1ccccc1` [Example 30], for which the LogP in series [1] was 2.36. The Eff. % in the series with Phytophthora infestans turned out to be 85%.

With `Cn1nnnc1C(=NOCc1csc(NC(=O)C=C(c2ccccc2)C2CC2)n1)c1ccccc1` [Example 22], in series [1], the LogP is 4.21. This compound returned an Eff. % in the series with Phytophthora infestans of 80%.

Compound `CC(=CC(=O)Nc1nc(CON=C(c2ccccc2)c2nnnn2C)cs1)C1CCCCC1` [Example 20] had a LogP in series [1] of 4.66. In addition, the Eff. % in the series on Phytophthora infestans worked out at 80%.
